The source of these data is ChEMBL document CHEMBL1130492 (Bioorg Med Chem Lett, 1997).

As usually defined, the Ki is the dissociation constant of the complex between target and ligand, obtained from inhibition or displacement. For orientation: inhibition means the percentage by which the read-out fell short of the control.

For one data set, the target named is D(2) dopamine receptor (Rattus norvegicus, UniProt P61169). The experiment in a line: In vitro ability to displace Dopamine D2 receptor binding to rat striatal membranes in competition experiments against 3H-spiperone, expressed as Ki. On the set-up: species or system Striatum, Membrane.
The subject of data set [1] is Rattus norvegicus. Nature of the data set: (§1) In vivo antipsychotic activity determined for dose ip by CAR (conditioned avoidance response) assay. It is filed as functional. Also on record: unit not given here.
Data set [2] deals with T1, 5-hydroxytryptamine receptor 1A (Rattus norvegicus, UniProt P19327).
T1 sequence (P19327 whole entry): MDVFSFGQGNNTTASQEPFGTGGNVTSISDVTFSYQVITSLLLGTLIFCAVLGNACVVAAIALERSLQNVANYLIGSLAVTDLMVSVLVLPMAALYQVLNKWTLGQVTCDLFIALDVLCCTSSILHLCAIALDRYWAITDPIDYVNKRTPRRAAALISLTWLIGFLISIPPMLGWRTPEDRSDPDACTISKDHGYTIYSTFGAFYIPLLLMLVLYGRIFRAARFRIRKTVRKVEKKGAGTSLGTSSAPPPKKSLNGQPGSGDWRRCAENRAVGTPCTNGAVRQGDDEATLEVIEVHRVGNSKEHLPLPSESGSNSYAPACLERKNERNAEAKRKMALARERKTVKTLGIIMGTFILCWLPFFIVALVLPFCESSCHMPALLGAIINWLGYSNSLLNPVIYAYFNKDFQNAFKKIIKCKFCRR
The experiment in a line: In vitro ability to displace serotonin 5-HT1A receptor binding to rat cerebral cortex in competition experiments against [3H]8-(hydroxy)dipropyl aminotetralin at 15 mg/kg concentration.

For data set [3], the species on record is Canis familiaris. Nature of the data set: Percent of radioactive dose in urine and feces excreted by 0-24 hr in dogs; NA is <10% inhibition at 1 uM for binding data. The note with it: dog, in vivo. The format is ADME, organism-based, Canis lupus familiaris.
Data set [4] deals with T2, Adrenergic receptor alpha-1 (Rattus norvegicus, UniProt P15823+P23944+P43140).
T2 sequence (P15823 whole entry): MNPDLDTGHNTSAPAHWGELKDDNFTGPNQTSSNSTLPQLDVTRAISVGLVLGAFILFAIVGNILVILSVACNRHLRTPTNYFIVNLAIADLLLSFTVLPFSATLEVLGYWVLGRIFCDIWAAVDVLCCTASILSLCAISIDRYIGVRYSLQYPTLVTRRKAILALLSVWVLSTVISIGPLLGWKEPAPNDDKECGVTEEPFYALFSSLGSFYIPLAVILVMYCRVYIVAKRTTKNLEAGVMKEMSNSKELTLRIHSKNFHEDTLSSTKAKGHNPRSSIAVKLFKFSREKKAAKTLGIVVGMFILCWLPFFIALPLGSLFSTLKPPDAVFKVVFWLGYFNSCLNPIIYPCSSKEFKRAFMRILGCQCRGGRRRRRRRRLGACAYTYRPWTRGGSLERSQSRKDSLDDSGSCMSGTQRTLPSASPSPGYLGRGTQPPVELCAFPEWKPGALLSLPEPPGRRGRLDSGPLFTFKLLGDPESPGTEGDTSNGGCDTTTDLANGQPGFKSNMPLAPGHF
T2 sequence (P23944 whole entry): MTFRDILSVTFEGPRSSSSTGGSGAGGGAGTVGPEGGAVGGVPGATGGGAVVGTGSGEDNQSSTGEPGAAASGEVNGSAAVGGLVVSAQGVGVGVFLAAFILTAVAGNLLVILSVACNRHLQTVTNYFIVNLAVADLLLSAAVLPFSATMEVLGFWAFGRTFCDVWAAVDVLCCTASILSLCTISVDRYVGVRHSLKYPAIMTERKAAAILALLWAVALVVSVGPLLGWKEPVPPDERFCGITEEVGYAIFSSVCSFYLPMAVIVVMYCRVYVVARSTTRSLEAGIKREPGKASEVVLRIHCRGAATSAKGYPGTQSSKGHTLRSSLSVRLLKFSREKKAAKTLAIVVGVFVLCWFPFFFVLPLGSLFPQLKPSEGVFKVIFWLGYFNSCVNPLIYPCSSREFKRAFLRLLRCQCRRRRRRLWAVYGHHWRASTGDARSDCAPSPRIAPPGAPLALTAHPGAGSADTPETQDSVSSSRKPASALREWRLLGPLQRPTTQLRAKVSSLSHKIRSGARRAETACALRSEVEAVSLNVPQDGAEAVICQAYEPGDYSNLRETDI
T2 sequence (P43140 whole entry): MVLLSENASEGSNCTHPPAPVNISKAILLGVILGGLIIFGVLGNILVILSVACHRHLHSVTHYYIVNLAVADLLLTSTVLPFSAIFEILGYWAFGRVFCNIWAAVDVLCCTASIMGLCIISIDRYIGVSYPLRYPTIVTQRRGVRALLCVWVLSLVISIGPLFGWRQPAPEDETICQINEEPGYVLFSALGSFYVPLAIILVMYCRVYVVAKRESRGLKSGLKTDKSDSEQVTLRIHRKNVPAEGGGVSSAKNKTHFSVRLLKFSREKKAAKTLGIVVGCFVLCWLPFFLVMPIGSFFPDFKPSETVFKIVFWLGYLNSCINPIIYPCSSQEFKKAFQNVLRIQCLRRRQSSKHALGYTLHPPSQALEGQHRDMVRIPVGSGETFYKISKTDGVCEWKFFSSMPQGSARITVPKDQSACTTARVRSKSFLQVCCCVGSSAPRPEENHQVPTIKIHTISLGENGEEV
The experiment in a line: In vitro ability to displace Alpha-1 adrenergic receptor binding to rat cerebral cortex in competition experiments against [3H]prazosin […], expressed as Ki.

The species named for data set [5] is Rattus norvegicus. The experiment in a line: Percent of radioactive dose in urine and feces excreted in 0-24 hr by rats; NA is <10% inhibition at 1 uM for binding data. It is filed as ADME, organism-based. To be noted: in vivo.
The species named for data set [6] is Canis familiaris. Nature of the data set: Percent of radioactive dose in urine and feces excreted in 0-24 hr by dogs; NA is <10% inhibition at 1 uM for binding data. To be noted: dog, in vivo. The format is ADME, organism-based, Canis lupus familiaris.
For data set [7], the species on record is Rattus norvegicus. Nature of the data set: Percent of radioactive dose in urine and feces excreted in 0-24 hr by rats. The format is ADME, organism-based. To be noted: in vivo.
The species named for data set [8] is Canis familiaris. Nature of the data set: Percent of radioactive dose in urine and feces excreted by 0-24 hr in dogs. The format is ADME, organism-based, Canis lupus familiaris. The note with it: dog, in vivo.
The target in data set [9] is T2, Adrenergic receptor alpha-1. The experiment in a line: In vitro ability to displace Alpha-1 adrenergic receptor binding to rat cerebral cortex in competition experiments against [3H]-prazosin, expressed as Ki.
For data set [10], the target named is T1, 5-hydroxytryptamine receptor 1A. Nature of the data set: In vitro ability to displace serotonin 5-HT1A receptor binding to rat cerebral cortex in competition experiments against [3H]8-(hydroxy)dipropyl aminotetralin at 1 mg/kg concentration.
For data set [11], the species on record is Canis familiaris. Nature of the data set: Percent of radioactive dose in urine and faeces excreted in 0-24 hr by dogs. The format is ADME, organism-based, Canis lupus familiaris, Urine/Feces. To be noted: dog, in vivo.
Data set [12] concerns Rattus norvegicus. Described as §1. The format is functional.
For data set [13], the species on record is Rattus norvegicus. The experiment in a line: Percent of radioactive dose in urine and faeces excreted in 0-24 hr by rats. It is filed as ADME, organism-based, Urine/Feces. To be noted: in vivo.
For data set [14], the target named is D(2) dopamine receptor (Rattus norvegicus) (UniProt P61169). The experiment in a line: In vitro ability to displace Dopamine D2 receptor binding to rat striatal membranes in competition experiments against [3H]spiperone at 1 uM concentration. The note with it: Striatum, Membrane.
Data set [15] addresses T3, 5-hydroxytryptamine receptor 1A (Rattus norvegicus) (UniProt P19327).
T3 sequence (whole entry): T1 sequence (P19327 whole entry)
Nature of the data set: In vitro ability to displace serotonin 5-HT1A receptor binding to rat cerebral cortex in competition experiments against [3H]8-(hydroxy)dipropyl aminotetralin at 1 uM concentration. It is filed as tissue-based.

The target in data set [16] is Adrenergic receptor alpha-1 (Rattus norvegicus) (UniProt P15823+P23944+P43140). Nature of the data set: In vitro ability to displace Alpha-1 adrenergic receptor binding to rat cerebral cortex in competition experiments against [3H]prazosin at 1 µM, expressed as % inhibition.

Chain of D(2) dopamine receptor (P61169 whole entry): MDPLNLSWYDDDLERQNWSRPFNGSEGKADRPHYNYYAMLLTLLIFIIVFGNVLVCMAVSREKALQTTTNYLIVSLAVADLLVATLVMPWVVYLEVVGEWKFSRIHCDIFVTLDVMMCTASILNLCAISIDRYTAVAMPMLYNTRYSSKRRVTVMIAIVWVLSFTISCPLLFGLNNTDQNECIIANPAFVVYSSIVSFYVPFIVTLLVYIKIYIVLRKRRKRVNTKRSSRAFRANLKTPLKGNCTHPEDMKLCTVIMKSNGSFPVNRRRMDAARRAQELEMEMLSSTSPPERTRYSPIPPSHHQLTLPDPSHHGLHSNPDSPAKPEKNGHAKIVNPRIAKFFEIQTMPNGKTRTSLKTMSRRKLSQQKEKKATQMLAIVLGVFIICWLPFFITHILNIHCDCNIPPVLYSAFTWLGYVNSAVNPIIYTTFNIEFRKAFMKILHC
Chain of D(2) dopamine receptor (Rattus norvegicus) (P61169 whole entry): as above

As for `CC(C)Oc1ccccc1N1CCN(Cc2cccc(C(=O)N3CCCC(O)C3)c2)CC1` (stereo not given), the Ki on D(2) dopamine receptor came out at 8.8 nM; in [2], 6.8 nM; in data set [4], 21 nM. Besides, the CAR in the data set with Rattus norvegicus [1] is on record as -96. Besides, the Dose in the data set filed under Canis familiaris [3] and in the data set listed under Rattus norvegicus [5] was under 2% throughout.

As to `CC(C)Oc1ccccc1N1CCN(Cc2cccc(C(=O)N3CCCCC3O)c2)CC1` (stereo not given), the Dose in the data set listed under Canis familiaris [6] and in the data set listed under Rattus norvegicus [5] was under 2% each time. For the same molecule, the Ki turned out to be 9 nM at D(2) dopamine receptor, 3 nM in data set [2] and 4 nM in data set [4]. The CAR in the data set on Rattus norvegicus [1] was -64.

For the molecule `CC(C)Oc1ccccc1N1CCN(Cc2cccc(C(=O)N3CCC(O)CC3)c2)CC1`, the Dose in the data set filed under Rattus norvegicus [7] and in the data set filed under Canis familiaris [8] was 3% in each case. In addition, the Ki at D(2) dopamine receptor was 11 nM; in [9], 3.6 nM; in [10], 7.8 nM. Also, in the data set with Rattus norvegicus [1], the CAR was -76.

As to `CC(C)Oc1ccccc1N1CCN(Cc2cccc(C(=O)N3CCCCC3)c2)CC1` [MAZAPERTINE], the Dose in the data set filed under Canis familiaris [11] stood at 5%; in the data set listed under Rattus norvegicus [13], 4%. In addition, the CAR with Rattus norvegicus [12] is recorded as -92.

For `CC(C)Oc1cc(O)ccc1N1CCN(Cc2cccc(C(=O)N3CCCCC3)c2)CC1`, the Dose in the data set listed under Rattus norvegicus [7] stood at 13%; in the data set filed under Canis familiaris [8] it was 3%. In the data set on Rattus norvegicus [1], the CAR is listed as -10.

With `O=C(O)c1cccc(C(=O)N2CCCCC2)c1`, the Dose in the data set filed under Rattus norvegicus [7] amounted to 11%; in the data set listed under Canis familiaris [8] it was 8%. Also, the inhibition in [14], in data set [15] and in data set [16] was under 10% throughout. Moreover, the CAR in the data set on Rattus norvegicus [1] is reported as -3.
